Structures can show the parent of a compound that is named as a salt. Where two headings read alike, the source gives them in different places.
Legend:
Format in all cases: biochemical
B-Raf(V599E) kinase = B-Raf(V599E) kinase (Homo sapiens, UniProt P15056, V600E); assay: B-Raf(V599E) kinase assay B1 (construct 1, MEK1 substrate, coupled spectrophotometric)
Protocol: The test compounds were incubated with the reaction mixtureat 30° C. for 2 h. […] The reaction rate was calculated using the […] time frame. […] IC50 values were calculated from a series of percent inhibition values determined at a range of inhibitor concentrations using software routines as implemented in the GraphPad Prism software package.

Abl kinase = target: T1, Abl kinase (Homo sapiens, UniProt P00519); assay: Abl kinase assay A2 (as A1, 1.1 nM enzyme, 2 h pre-incubation, 0.5 mM ATP)
T1 sequence (P00519 229-512): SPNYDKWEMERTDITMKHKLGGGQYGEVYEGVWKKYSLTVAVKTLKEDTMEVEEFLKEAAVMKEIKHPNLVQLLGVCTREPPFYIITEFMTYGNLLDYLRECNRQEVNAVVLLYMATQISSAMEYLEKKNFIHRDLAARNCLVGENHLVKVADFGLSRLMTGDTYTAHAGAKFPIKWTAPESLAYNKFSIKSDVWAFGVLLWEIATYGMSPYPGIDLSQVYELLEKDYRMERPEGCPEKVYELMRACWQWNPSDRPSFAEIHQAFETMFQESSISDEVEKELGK
Protocol: (§1) IC50 values were calculated from a series of percent inhibition values determined at a range of inhibitor concentrations using software routines as implemented in the GraphPad Prism software package.

[1] = target: phosphorylated p-38-alpha kinase (Homo sapiens, UniProt Q16539); assay: P-38 alpha kinase assay P1 (coupled spectrophotometric, 2 h pre-incubation)
Chain of phosphorylated p-38-alpha kinase (Q16539 1-360 isoform Q16539-2): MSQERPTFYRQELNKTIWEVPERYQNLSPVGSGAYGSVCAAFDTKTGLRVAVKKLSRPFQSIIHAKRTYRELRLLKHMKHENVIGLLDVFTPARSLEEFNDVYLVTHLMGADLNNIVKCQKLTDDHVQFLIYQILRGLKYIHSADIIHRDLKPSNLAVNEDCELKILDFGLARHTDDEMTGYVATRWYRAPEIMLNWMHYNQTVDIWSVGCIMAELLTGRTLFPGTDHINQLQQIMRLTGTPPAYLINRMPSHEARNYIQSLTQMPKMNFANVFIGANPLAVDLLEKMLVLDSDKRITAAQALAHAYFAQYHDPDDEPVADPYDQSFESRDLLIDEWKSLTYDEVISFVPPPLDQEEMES

KDR kinase [2] = target: T2, KDR kinase (Homo sapiens, UniProt P35968, DEL940-989/E990V); assay: KDR kinase assay K1 (pyruvate kinase/lactate dehydrogenase coupled, spectrophotometric); conditions: Method K1; read-out: KDR Data (IC50)
T2 sequence (P35968 with tags, fused parts or gaps DEL940-989/E990V): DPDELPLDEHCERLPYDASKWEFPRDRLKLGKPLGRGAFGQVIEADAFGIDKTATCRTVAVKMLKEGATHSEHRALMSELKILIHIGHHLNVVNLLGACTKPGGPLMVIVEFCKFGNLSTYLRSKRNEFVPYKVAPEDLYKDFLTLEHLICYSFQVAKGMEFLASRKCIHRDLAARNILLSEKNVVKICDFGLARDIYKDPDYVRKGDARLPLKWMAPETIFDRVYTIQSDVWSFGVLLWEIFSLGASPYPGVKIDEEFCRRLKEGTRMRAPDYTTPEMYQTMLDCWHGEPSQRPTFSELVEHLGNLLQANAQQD
Protocol: as §1

KDR kinase [3] = target: T2, KDR kinase; assay: KDR kinase assay K2 (as K1, 2.1 nM enzyme, 2 h pre-incubation, 1.0 mM ATP)
Protocol: as §1

[4] = Method A2, read-out: Abl Data (IC50)
[5] = method P1 (2 h pre-incubation), read-out: P-38 Data

Chain of B-Raf(V599E) kinase (P15056 with tags, fused parts or gaps V600E): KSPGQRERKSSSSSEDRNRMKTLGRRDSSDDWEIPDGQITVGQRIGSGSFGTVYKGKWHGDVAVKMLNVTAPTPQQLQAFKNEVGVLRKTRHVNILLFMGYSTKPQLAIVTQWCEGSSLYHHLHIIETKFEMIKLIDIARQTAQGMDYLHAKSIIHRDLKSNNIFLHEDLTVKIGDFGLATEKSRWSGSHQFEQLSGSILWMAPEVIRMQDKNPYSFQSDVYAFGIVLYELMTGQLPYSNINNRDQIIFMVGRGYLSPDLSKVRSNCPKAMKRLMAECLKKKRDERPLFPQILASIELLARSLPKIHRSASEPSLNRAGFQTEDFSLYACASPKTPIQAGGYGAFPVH

Compound | IC50 (B-Raf(V599E) kinase) [nM] | IC50 (Abl kinase; [4]) [nM] | IC50 [1, 5] [nM] | IC50 (KDR kinase [2]) [nM] | IC50 (Abl kinase) [nM] | IC50 (KDR kinase [3]) [nM] | IC50 [1] [nM]
CC(C)(C)c1cc(NC(=O)Nc2cccc(Oc3cccnc3)c2)n(-c2cc(CO)c3ccccc3c2)n1 [Example 67, 1-(3-t-butyl-1-(4-(hydroxymethyl)naphthalen-2-yl)-1H-pyrazol-5-yl)-3-(3-(pyridin-3-yloxy)phenyl)urea] | 4.8 | 1 | 35 |  |  |  | 
CC(C)(C)c1cc(NC(=O)Nc2cc(F)c(F)cc2F)n(-c2cc(CC(N)=O)c3ccccc3c2)n1 [Example 81, 1-(1-(4-(2-amino-2-oxoethyl)naphthalen-2-yl)-3-t-butyl-1H-pyrazol-5-yl)-3-(2,4,5-trifluorophenyl)urea] | 4.1 | 120 |  |  |  |  | 
CC(C)(C)c1cc(NC(=O)Nc2cc(F)c(F)cc2F)n(-c2cc(CC(=O)NCC(O)CO)c3ccccc3c2)n1 (centres unmarked) [Example 94, 1-(3-t-butyl-1-(4-(2-(2,3-dihydroxypropyl-amino)-2-oxoethyl)naphthalen-2-yl)-1H-pyrazol-5-yl)-3-(2,4,5-trifluorophenyl)urea] | 4.8 | 130 | 68 |  |  |  | 
CC(C)(C)c1cc(NC(=O)Nc2cc(F)cc(F)c2F)n(-c2cc(CC(=O)NCC(O)CO)c3ccccc3c2)n1 (centres unmarked) [Example 95, 1-(3-t-butyl-1-(4-(2-(2,3-dihydroxypropyl-amino)-2-oxoethyl)naphthalen-2-yl)-1H-pyrazol-5-yl)-3-(2,3,5-trifluorophenyl)urea] | 2.9 | 56 |  |  |  |  | 
CC(C)(C)c1cc(NC(=O)Nc2cccc(Oc3cccnc3)c2)n(-c2cc(CC(=O)NCC(O)CO)c3ccccc3c2)n1 (centres unmarked) [Example 97, 1-(3-t-butyl-1-(4-(2-(2,3-dihydroxypropyl-amino)-2-oxoethyl)naphthalen-2-yl)-1H-pyrazol-5-yl)-3-(3-(pyridin-3-yloxy)phenyl)urea] | 7.2 | 1.5 |  |  |  |  | 
CC(C)(C)c1cc(NC(=O)Nc2cccc(Oc3cccnc3)c2)n(-c2ccc3c(c2)CCN3)n1 [Example 119, 1-(3-t-butyl-1-(indolin-5-yl)-1H-pyrazol-5-yl)-3-(3-(pyridin-3-yloxy)phenyl)urea] | 9.1 | 12 | 60 | 18 |  |  | 
CC(C)(C)c1cc(NC(=O)Nc2cccc(Cl)c2Cl)n(-c2ccc3c(c2)CNCC3)n1 [Example 123, 1-[3-t-butyl-1-(1,2,3,4-tetrahydroisoquinolin-7-yl)-1H-pyrazol-5-yl]-3-(2,3-dichloro-phenyl)urea] | 4.9 | 290 |  | 190 |  |  | 
Cn1c(=O)c(-c2cccc(NC(=O)Nc3cc(C(C)(C)C)nn3-c3ccc4c(c3)CCC(=O)N4)c2)cc2cncnc21 [Example 132, 1-(3-t-butyl-1-(2-oxo-1,2,3,4-tetrahydroquinolin-6-yl)-1H-pyrazol-5-yl)-3-(3-(8-methyl-7-oxo-7,8-dihydropyrido[2,3-d]pyrimidin-6-yl)phenyl)urea] | 4.8 | 13 | 59 |  |  |  | 
CC(C)(C)c1cc(NC(=O)Nc2cccc(Cl)c2Cl)n(-c2ccc3c(c2)CCNC3)n1 [Example 138, 1-(3-t-butyl-1-(1,2,3,4-tetrahydroisoquinolin-6-yl)-1H-pyrazol-5-yl)-3-(2,3-dichlorophenyl)urea] | 3.2 | 100 | 140 | 300 |  |  | 
CC(C)(C)c1cc(NC(=O)Nc2cc(F)c(F)cc2F)n(-c2ccc3c(c2)CCNC3)n1 [Example 146, 1-(3-t-butyl-1-(1,2,3,4-tetrahydroiso-quinolin-6-yl)-1H-pyrazol-5-yl)-3-(2,4,5-trifluorophenyl)-urea] | 8.8 | 190 |  |  |  |  | 
CNC(=O)c1cc(Oc2ccc(NC(=O)Nc3cc(C(C)(C)C)nn3-c3ccc4c(c3)CCNC4)cc2)ccn1 [Example 148, 1-(3-t-butyl-1-(1,2,3,4-tetrahydroisoquinolin-6-yl)-1H-pyrazol-5-yl)-3-(4-(2-(methylcarbamoyl)pyridin-4-yloxy)phenyl)urea] | 31 | 1.2 |  |  |  |  | 
Cn1c(=O)c(-c2cccc(NC(=O)Nc3cc(C(C)(C)C)nn3-c3ccc4c(c3)CCNC4)c2)cc2cncnc21 [Example 149, 1-(3-t-butyl-1-(1,2,3,4-tetrahydroisoquinolin-6-yl)-1H-pyrazol-5-yl)-3-(3-(8-methyl-7-oxo-7,8-dihydropyrido[2,3-d]pyrimidin-6-yl)phenyl)urea] | 9.3 | 1.2 |  |  |  |  | 
CC(C)(C)c1cc(NC(=O)Nc2cccc(Oc3cncc(Cl)c3)c2)n(-c2ccc3c(c2)CCNC3)n1 [Example 150, 1-(3-t-butyl-1-(1,2,3,4-tetrahydroisoquinolin-6-yl)-1H-pyrazol-5-yl)-3-(3-(5-chloropyridin-3-yloxy)phenyl)urea] | 4.7 | 1.3 |  |  |  |  | 
CC(C)(C)c1cc(NC(=O)Nc2ccc(-c3cccc4c3CNC4=O)cc2)n(-c2ccc3c(c2)CCNC3)n1 [Example 151, 1-(3-t-butyl-1-(1,2,3,4-tetrahydroisoquinolin-6-yl)-1H-pyrazol-5-yl)-3-(4-(1-oxoisoindolin-4-yl)phenyl)urea hydrochloride] |  |  |  |  | 8 | 3.5 | 
Cc1ccc(NC(=O)Nc2cc(C(C)(C)C)nn2-c2ccc3c(c2)CCNC3)cc1Nc1nccc(-c2cccnc2)n1 [Example 153, 1-(3-t-butyl-1-(1,2,3,4-tetrahydroisoquinolin-6-yl)-1H-pyrazol-5-yl)-3-(4-methyl-3-(4-(pyridin-3-yl)pyrimidin-2-ylamino)phenyl)urea dihydrochloride] | 27 |  |  |  | 1.2 |  | 
CNC(=O)c1cc(Oc2ccc(NC(=O)Nc3cc(C(C)(C)C)nn3-c3ccc4[nH]c(=O)ccc4c3)cc2)ccn1 [Example 159, 1-(3-t-butyl-1-(2-oxo-1,2-dihydroquinolin-6-yl)-1H-pyrazol-5-yl)-3-(4-(2-(methylcarbamoyl)pyridin-4-yloxy)phenyl)urea] | 14 | 2.3 | 72 |  |  |  | 
Cn1c(=O)c(-c2cccc(NC(=O)Nc3cc(C4CCCC4)nn3-c3ccc4[nH]c(=O)ccc4c3)c2)cc2cncnc21 [Example 162, 1-(3-cyclopentyl-1-(2-oxo-1,2-dihydroquinolin-6-yl)-1H-pyrazol-5-yl)-3-(3-(8-methyl-7-oxo-7,8-dihydropyrido[2,3-d]pyrimidin-6-yl)phenyl)urea] | 6.7 | 80 |  |  |  |  | 
CNC(=O)c1cc(Oc2ccc(NC(=O)Nc3cc(C4CCCC4)nn3-c3ccc4[nH]c(=O)ccc4c3)cc2)ccn1 [Example 163, 1-(3-cyclopentyl-1-(2-oxo-1,2-dihydroquinolin-6-yl)-1H-pyrazol-5-yl)-3-(4-(2-(methylcarbamoyl)pyridin-4-yloxy)phenyl)urea] | 18 | 6.3 |  |  |  |  | 
CC(C)(C)c1cc(NC(=O)Nc2cccc(Cl)c2Cl)n(-c2ccc3nc(N4CCNCC4)ccc3c2)n1 [Example 168, 1-(3-t-butyl-1-(2-(piperazin-1-yl)quinolin-6-yl)-1H-pyrazol-5-yl)-3-(2,3-dichlorophenyl)urea] | 30 | 1100 |  |  |  |  | 
CNC(=O)c1cc(Oc2ccc(NC(=O)Nc3cc(C(C)(C)C)nn3-c3ccc4nc(N5CCNCC5)ccc4c3)cc2)ccn1 [Example 170, 1-(3-t-butyl-1-(2-(piperazin-1-yl)quinolin-6-yl)-1H-pyrazol-5-yl)-3-(4-(2-(methylcarbamoyl)pyridin-4-yloxy)phenyl)urea] | 40 | 1.8 |  |  |  |  | 
CNC(=O)c1cc(Oc2ccc(NC(=O)Nc3cc(C(C)(C)C)nn3-c3ccc4nc(NCCN)ccc4c3)cc2)ccn1 [Example 172, 1-(1-(2-(2-aminoethylamino)quinolin-6-yl)-3-t-butyl-1H-pyrazol-5-yl)-3-(4-(2-(methylcarbamoyl)pyridin-4-yloxy)phenyl)urea] | 29 | 1.9 |  |  |  |  | 
CNC(=O)c1cc(Oc2ccc(NC(=O)Nc3cc(C(C)(C)C)nn3-c3ccc4nc(N5CC[C@@H](N(C)C)C5)ccc4c3)cc2)ccn1 [Example 173, 1-(3-t-butyl-1-(2-((R)-3-(dimethylamino)pyrrolidin-1-yl)quinolin-6-yl)-1H-pyrazol-5-yl)-3-(4-(2-(methylcarbamoyl)pyridin-4-yloxy)phenyl)urea] | 63 | 4.2 |  |  |  |  | 
CNC(=O)c1cc(Oc2ccc(NC(=O)Nc3cc(C(C)(C)C)nn3-c3ccc4nc(N(C)C)ccc4c3)cc2)ccn1 [Example 175, 1-(3-t-butyl-1-(2-(dimethylamino)quinolin-6-yl)-1H-pyrazol-5-yl)-3-(4-(2-(methylcarbamoyl)pyridin-4-yloxy)phenyl)urea] | 30 | 1.5 | 160 |  |  |  | 
Cn1c(=O)c(-c2cccc(NC(=O)Nc3cc(C(C)(C)C)nn3-c3ccc4c(c3)CC(C(N)=O)NC4)c2)cc2cncnc21 (centres unmarked) [Example 185, 1-(3-t-butyl-1-(3-carbamoyl-1,2,3,4-tetrahydroisoquinolin-6-yl)-1H-pyrazol-5-yl)-3-(3-(8-methyl-7-oxo-7,8-dihydropyrido[2,3-d]pyrimidin-6-yl)phenyl)urea dihydrochloride] | 6.9 |  |  |  | 2.7 |  | 23

Source: patent publication US8163756B2 (priority 2004, dated 2012)
